Literature values, collected in patent US20220370511A1, “METHODS AND COMPOSITIONS FOR ENHANCING OVERALL HEALTH AND LONGEVITY IN MAMMALS” (MYOS CORP., priority 2019, published 2022).

Columns and labels:
[1] = chronic supplementation, healthy middle-aged and older adults
[2] = dose of 300 mg/kg/day
NAD+ metabolism = conditions: chronic supplementation, healthy middle-aged and older adults

## NC(=O)c1ccc[n+]([C@@H]2O[C@H](CO)[C@@H](O)[C@H]2O)c1 [nicotinamide riboside]
[1]
  tolerability: well tolerated
[2]
  adverse effects related to nicotinamide riboside: absent
NAD+ metabolism
  stimulation of NAD+ metabolism: effectively stimulated
